Assay results from patent publication US10638756B2, “Molecules having pesticidal utility, and intermediates, compositions, and processes, related thereto” (Dow AgroSciences LLC, priority 2017, dated 2020).

Experiments:
[1] = system: Beet Armyworm (Spodoptera exigua); assay: Bioassay on Beet Armyworm (BAW), 128-well diet tray assay; assay type: in vivo; conditions: for mortality at 50 µg/cm2: Spodoptera exigua, 168 h, 50 μg/cm^2 on artificial diet, second instar larvae, five to seven days, read-out: BAW % Control (or Mortality) rating
Procedure: (§1) Certain molecules disclosed in this document were tested against BAW and CL using procedures described in the following examples. In the reporting of the results, the “BAW & CL Rating Table” was used (See Table Section).
Bioassays on BAW were conducted using a 128-well diet tray assay. […] Trays were covered with a clear self-adhesive cover, vented to allow gas exchange, and held at 25° C., 14:10 light-dark for five to seven days. Percent mortality was recorded for the larvae in each well; activity in the eight wells was then averaged. The results are indicated in the table entitled “Table ABC: Biological Results” (See Table Section).

[2] = system: Cabbage Looper (Trichoplusia ni); assay: Bioassay on Cabbage Looper (CL), 128-well diet tray assay; assay type: in vivo; conditions: 168 h, 50 μg/cm^2 on artificial diet, second instar larvae, five to seven days, read-out: CL % Control (or Mortality) rating
Procedure: as §1
Bioassays on CL were conducted using a 128-well diet tray assay. One to five second instar CL larvae were placed in each well (3 mL) of the diet tray that had been previously filled with 1 mL of artificial diet to which 50 μg/cm^2 of the test molecule (dissolved in 50 μL of 90:10 acetone-water mixture) had been applied (to each of eight wells) and then allowed to dry. Trays were covered with a clear self-adhesive cover, vented to allow gas exchange, and held at 25° C., 14:10 light-dark for five to seven days. Percent mortality was recorded for the larvae in each well; activity in the eight wells was then averaged. The results are indicated in the table entitled “Table ABC: Biological Results” (See Table Section).

`O=C(NNc1ncccn1)c1ccc(/C(F)=C/C(c2cc(Cl)cc(Br)c2)C(F)(F)F)cc1C(F)(F)F` (stereo not shown) [F173, (Z)-4-(3-(3-Bromo-5-chlorophenyl)-1,4,4,4-tetrafluorobut-1-en-1-yl)-N′-(pyrimidin-2-yl)-2-(trifluoromethyl)benzohydrazide] gave a mortality at 50 µg/cm2 [1] of 50 to 100% and a mortality at 50 µg/cm2 [2] of 50 to 100%.
For `CN(NC(=O)c1ccc(/C(F)=C/C(c2cc(Cl)c(Cl)c(Cl)c2)C(F)(F)F)cc1C(F)(F)F)C1CCCC1` (stereo not shown) [F144, (Z)—N′-Cyclopentyl-N′-methyl-4-(1,4,4,4-tetrafluoro-3-(3,4,5-trichlorophenyl)but-1-en-1-yl)-2-(trifluoromethyl)benzohydrazide], the mortality at 50 µg/cm2 [1] was 50 to 100% and the mortality at 50 µg/cm2 [2] was 50 to 100%.
Work on `O=C(NNc1ccccn1)c1ccc(/C(F)=C/C(c2cc(Br)c(F)c(Br)c2)C(F)(F)F)cc1C(F)(F)F` (stereo not shown) [F6, (Z)-4-(3-(3,5-Dibromo-4-fluorophenyl)-1,4,4,4-tetrafluorobut-1-en-1-yl)-N′-(pyridin-2-yl)-2-(trifluoromethyl)benzohydrazide] yielded a mortality at 50 µg/cm2 [1] of 50 to 100% and a mortality at 50 µg/cm2 [2] of 50 to 100%.
In the case of `O=C(NNc1c(Cl)cnc(Cl)c1Cl)c1ccc(/C(F)=C/C(c2cc(Cl)c(Cl)c(Cl)c2)C(F)(F)F)cc1C(F)(F)F` (stereo not shown) [F30, (Z)-4-(1,4,4,4-Tetrafluoro-3-(3,4,5-trichlorophenyl)but-1-en-1-yl)-N′-(2,3,5-trichloro-4-pyridin-4-yl)-2-(trifluoromethyl)benzohydrazide], the mortality at 50 µg/cm2 [1] is reported as 50 to 100% and the mortality at 50 µg/cm2 [2] is reported as 50 to 100%.
`O=C(NNc1ncccn1)c1ccc(/C(F)=C/C(c2cc(F)c(F)c(Cl)c2)C(F)(F)F)cc1C(F)(F)F` (stereo not shown) [F174, (Z)-4-(3-(3-Chloro-4,5-difluorophenyl)-1,4,4,4-tetrafluorobut-1-en-1-yl)-N′-(pyrimidin-2-yl)-2-(trifluoromethyl)benzohydrazide] gave a mortality at 50 µg/cm2 [1] of 50 to 100% and a mortality at 50 µg/cm2 [2] of 50 to 100%.
`O=C(NNc1cccnn1)c1ccc(/C(F)=C/C(c2cc(Cl)c(Cl)c(Cl)c2)C(F)(F)F)cc1C(F)(F)F` (stereo not shown) [F86] was tested, and the mortality at 50 µg/cm2 [1] was 50 to 100% and the mortality at 50 µg/cm2 [2] was 50 to 100%.
Molecule `NN(C(=O)c1ccc(/C(F)=C/C(c2cc(Cl)c(Cl)c(Cl)c2)C(F)(F)F)cc1C(F)(F)F)C1CC1` (stereo not shown) [F112, (Z)—N-Cyclopropyl-4-(1,4,4,4-tetrafluoro-3-(3,4,5-trichlorophenyl)but-1-en-1-yl)-2-(trifluoromethyl)benzohydrazide] has a mortality at 50 µg/cm2 [1] of 50 to 100% and a mortality at 50 µg/cm2 [2] of 50 to 100%.
In the case of `O=C(NNc1ncccn1)c1ccc(/C(F)=C/C(c2cc(Cl)cc(OC(F)(F)F)c2)C(F)(F)F)cc1C(F)(F)F` (stereo not shown) [F106, (Z)-4-(3-(3-Chloro-5-(trifluoromethoxy)phenyl)-1,4,4,4-tetrafluorobut-1-en-1-yl)-N′-(pyrimidin-2-yl)-2-(trifluoromethyl)benzohydrazide], the mortality at 50 µg/cm2 [1] is reported as 50 to 100% and the mortality at 50 µg/cm2 [2] is reported as 50 to 100%.
`Cc1nc(Cl)cc(NNC(=O)c2ccc(/C(F)=C/C(c3cc(Cl)c(Cl)c(Cl)c3)C(F)(F)F)cc2C(F)(F)F)n1` (stereo not shown) [F79, (Z)—N′-(6-Chloro-2-methylpyrimidin-4-yl)-4-(1,4,4,4-tetrafluoro-3-(3,4,5-trichlorophenyl)but-1-en-1-yl)-2-(trifluoromethyl)benzohydrazide] gave a mortality at 50 µg/cm2 [1] of 50 to 100% and a mortality at 50 µg/cm2 [2] of 50 to 100%.
With `O=C(NNc1cnccn1)c1ccc(/C(F)=C/C(c2cc(Cl)c(Cl)c(Cl)c2)C(F)(F)F)cc1C(F)(F)F` (stereo not shown) [F92, (Z)—N′-(Pyrazin-2-yl)-4-(1,4,4,4-tetrafluoro-3-(3,4,5-trichlorophenyl)but-1-en-1-yl)-2-(trifluoromethyl)benzohydrazide] the mortality at 50 µg/cm2 [1] was 50 to 100% and the mortality at 50 µg/cm2 [2] was 50 to 100%.
Work on `CN(C)CCNNC(=O)c1ccc(/C(F)=C/C(c2cc(Cl)c(Cl)c(Cl)c2)C(F)(F)F)cc1C(F)(F)F` (stereo not shown) [F143, (Z)—N′-(2-(Dimethylamino)ethyl)-4-(1,4,4,4-tetrafluoro-3-(3,4,5-trichlorophenyl)but-1-en-1-yl)-2-(trifluoromethyl)benzohydrazide] yielded a mortality at 50 µg/cm2 [1] of 50 to 100% and a mortality at 50 µg/cm2 [2] of 0 to 50%.
Work on `CC(C)CCNNC(=O)c1ccc(/C(F)=C/C(c2cc(Cl)c(Cl)c(Cl)c2)C(F)(F)F)cc1C(F)(F)F` (stereo not shown) [F145, (Z)—N′-Isopentyl-4-(1,4,4,4-tetrafluoro-3-(3,4,5-trichlorophenyl)but-1-en-1-yl)-2-(trifluoromethyl)benzohydrazide] yielded a mortality at 50 µg/cm2 [1] of 50 to 100% and a mortality at 50 µg/cm2 [2] of 50 to 100%.
`O=C(NNc1ncccn1)c1ccc(/C(F)=C/C(c2ccc(Br)c(Br)c2)C(F)(F)F)cc1C(F)(F)F` (stereo not shown) [F177, (Z)-4-(3-(3,4-Dibromophenyl)-1,4,4,4-tetrafluorobut-1-en-1-yl)-N′-(pyrimidin-2-yl)-2-(trifluoromethyl)benzohydrazide] showed a mortality at 50 µg/cm2 [1] of 50 to 100% and a mortality at 50 µg/cm2 [2] of 50 to 100%.
`O=C(NNC1CCC(F)(F)CC1)c1ccc(/C(F)=C/C(c2cc(Cl)c(Cl)c(Cl)c2)C(F)(F)F)cc1C(F)(F)F` (stereo not shown) [F146, (Z)—N′-(4,4-Difluorocyclohexyl)-4-(1,4,4,4-tetrafluoro-3-(3,4,5-trichlorophenyl)but-1-en-1-yl)-2-(trifluoromethyl)benzohydrazide] gave a mortality at 50 µg/cm2 [1] of 50 to 100% and a mortality at 50 µg/cm2 [2] of 50 to 100%.
Molecule `O=C(NNc1ncccn1)c1ccc(/C(F)=C/C(c2cc(Br)c(F)c(Br)c2)C(F)(F)F)cc1C(F)(F)F` (stereo not shown) [F163, (Z)-4-(3-(3,5-Dibromo-4-fluorophenyl)-1,4,4,4-tetrafluorobut-1-en-1-yl)-N′-(pyrimidin-2-yl)-2-(trifluoromethyl)benzohydrazide] has a mortality at 50 µg/cm2 [1] of 50 to 100% and a mortality at 50 µg/cm2 [2] of 50 to 100%.
`CN(CC1CC1)NC(=O)c1ccc(/C(F)=C/C(c2cc(Cl)c(Cl)c(Cl)c2)C(F)(F)F)cc1C(F)(F)F` (stereo not shown) [F159, (Z)—N′-(Cyclopropylmethyl)-N′-methyl-4-(1,4,4,4-tetrafluoro-3-(3,4,5-trichlorophenyl)but-1-en-1-yl)-2-(trifluoromethyl)benzohydrazide] gave a mortality at 50 µg/cm2 [1] of 50 to 100% and a mortality at 50 µg/cm2 [2] of 50 to 100%.
Molecule `O=C(NNc1nccc(C(F)(F)F)n1)c1ccc(/C(F)=C/C(c2cc(Cl)c(Cl)c(Cl)c2)C(F)(F)F)cc1C(F)(F)F` (stereo not shown) [F44, (Z)-4-(1,4,4,4-Tetrafluoro-3-(3,4,5-trichlorophenyl)but-1-en-1-yl)-2-(trifluoromethyl)-N′-(4-(trifluoromethyl)pyrimidin-2-yl)benzohydrazide] has a mortality at 50 µg/cm2 [1] of 50 to 100% and a mortality at 50 µg/cm2 [2] of 50 to 100%.
`CCc1cnc(N(C)NC(=O)c2ccc(/C(F)=C/C(c3cc(Cl)c(Cl)c(Cl)c3)C(F)(F)F)cc2C(F)(F)F)nc1` (stereo not shown) [F41, (Z)—N′-(5-Ethylpyrimidin-2-yl)-N′-methyl-4-(1,4,4,4-tetrafluoro-3-(3,4,5-trichlorophenyl)but-1-en-1-yl)-2-(trifluoromethyl)benzohydrazide] gave a mortality at 50 µg/cm2 [1] of 50 to 100% and a mortality at 50 µg/cm2 [2] of 50 to 100%.
Molecule `O=C(NNc1ncccn1)c1ccc(/C(F)=C/C(c2cc(Cl)c(Cl)c(Cl)c2)C(F)(F)F)cc1Cl` (stereo not shown) [F20, (Z)-2-Chloro-N′-(pyrimidin-2-yl)-4-(1,4,4,4-tetrafluoro-3-(3,4,5-trichlorophenyl)but-1-en-1-yl)benzohydrazide] has a mortality at 50 µg/cm2 [1] of 50 to 100% and a mortality at 50 µg/cm2 [2] of 50 to 100%.
Molecule `O=C(Nn1ccc2ccccc21)c1ccc(/C(F)=C/C(c2cc(Cl)c(Cl)c(Cl)c2)C(F)(F)F)cc1C(F)(F)F` (stereo not shown) [F89, (Z)—N-(1H-Indol-1-yl)-4-(1,4,4,4-tetrafluoro-3-(3,4,5-trichlorophenyl)but-1-en-1-yl)-2-(trifluoromethyl)benzamide] has a mortality at 50 µg/cm2 [1] of 50 to 100% and a mortality at 50 µg/cm2 [2] of 50 to 100%.
`N#CCN(NC(=O)c1ccc(/C(F)=C/C(c2cc(Cl)c(Cl)c(Cl)c2)C(F)(F)F)cc1C(F)(F)F)c1ncccn1` (stereo not shown) [F189, (Z)—N′-(cyanomethyl)-N′-(pyrimidin-2-yl)-4-(1,4,4,4-tetrafluoro-3-(3,4,5-trichlorophenyl)but-1-en-1-yl)-2-(trifluoromethyl)benzohydrazide] showed a mortality at 50 µg/cm2 [1] of 50 to 100% and a mortality at 50 µg/cm2 [2] of 50 to 100%.
With `O=C(NNc1ncccn1)c1ccc(/C(F)=C/C(c2cc(Cl)c(Cl)c(C3CC3)c2)C(F)(F)F)cc1C(F)(F)F` (stereo not shown) [F191, (Z)-4-(3-(3,4-Dichloro-5-cyclopropylphenyl)-1,4,4,4-tetrafluorobut-1-en-1-yl)-N′-(pyrimidin-2-yl)-2-(trifluoromethyl)benzohydrazide] the mortality at 50 µg/cm2 [1] was 50 to 100% and the mortality at 50 µg/cm2 [2] was 50 to 100%.
For `O=C(NNc1ncccn1)c1ccc(/C(F)=C/[C@@H](c2cc(Cl)c(Cl)c(Cl)c2)C(F)(F)F)cc1C(F)(F)F` (single isomer, unassigned) [F94], the “BAW (Table CD-2)” value ([1]; 0.005 μg/cm^2) was 0, the “BAW (Table CD-2)” value ([1]; 0.05 μg/cm^2) was 0 and the “BAW (Table CD-2)” value ([1]; 0.5 μg/cm^2) was 7. For the same molecule, the “BAW (Table CD-2)” value ([1]; 5.0 μg/cm^2) was 100, the mortality at 50 µg/cm2 [1] was 50 to 100% and the mortality at 50 µg/cm2 [2] was 50 to 100%.
With `CN(NC(=O)c1ccc(/C(F)=C/C(c2cc(Cl)cc(Cl)c2)C(F)(F)F)cc1C(F)(F)F)c1ncccn1` (stereo not shown) [F151, (Z)-4-(3-(3,5-Dichlorophenyl)-1,4,4,4-tetrafluorobut-1-en-1-yl)-N′-methyl-N′-(pyrimidin-2-yl)-2-(trifluoromethyl)benzohydrazide] the mortality at 50 µg/cm2 [1] was 50 to 100% and the mortality at 50 µg/cm2 [2] was 50 to 100%.
